Patent publication US9389235B2, “Methods of using biomarkers for predicting the outcome of an immunotherapy against cancer” (priority 2010, dated 2016)
Read-outs that look alike come from different tables or passages of the source.

Test system: metastatic RCC patients
Type: in vivo, human
Conditions: for HR, overall survival, +CY vs −CY arm / HR (95% CI), overall survival, +CY vs −CY arm: IMA901-treated patients
Experimental: The IMA901-202 (phase II) study used univariate and multivariate analyses to identify parameters which alone or in combination serve as predictive biomarkers for the success in terms of immune response induction and prolongation of overall survival of IMA901 treatment of metastatic RCC patients.
To achieve this, around 450 parameters (patient- or tumor-related parameters as well as analytes measured in serum or urine and cellular parameters) were analyzed using pre-treatment samples of the IMA901-202 (phase II) study population. For multivariate analyses, which selected a set of several parameters, those parameters that required preparation of peripheral blood mononuclear cells (PBMCs) were not included in order to limit measurement costs in future trials. Parameters were analyzed for their association with overall survival and T-cell responses.
Thereby, the selection of purely prognostic markers, which by definition would show association with overall survival in both arms, was avoided.
All samples were collected before any therapeutic study intervention, either three days before vaccination and immediately before administration of cyclophosphamide in the +CY arm, or immediately before vaccination. Serum samples were taken using a serum/gel-[…] (Becton Dickinson, 5 ml), inverted and incubated for a minimum of 30 minutes. Tubes were centrifuged for 15 minutes at least 1200×g, and serum (approximately 2 ml) was transferred into a NUNC cryotube (3.6 ml). Cryotubes were stored immediately at <−20° C. until measurement. […] Urine was collected shortly before vaccination. For dipstick examination, only fresh urine was used. Citrated plasma for analysis of coagulation was collected approximately two weeks before vaccination. Samples were taken using a citrate-[…] and centrifuged within 30 minutes at least 1200×g at ambient temperature. Supernatant plasma was transferred into microtubes.
Biomarker measurement methods included ELISA, multiplex immunoassays, epigenetic assays, mass spectrometry, FACS analyses, routine clinical methods of haematology, clinical chemistry and urine analysis, and other methods.
The interaction of parameters with CY-pre-treatment was assessed using the Cox proportional hazards model. Candidates showing an interaction p value of <0.05 at any cutoff value that was not at the extreme ends of the distribution (i.e. selecting or de-selecting >˜5% of patients) were considered as interesting.
Moreover, to exclude parameters with significant interaction due to inverse association of cyclophosphamide pre-treatment with overall survival in the unfavorable biomarker group, an additional criterion was significant association (p<0.05) with overall survival in the positive biomarker group. A significant (p<0.05) association with overall survival in the +CY group, but not in the −CY group was considered to be an additional hint for the predictive instead of prognostic quality of a parameter.
Multivariate biomarkers were determined according to a Cox proportional hazard model, whose properties and extensions are described in the following.

Q: `O=P1(N(CCCl)CCCl)NCCCO1` (stereo not shown) [cyclophosphamide] was tested. Which “patients still alive at the end of the study” value (CCL17/TARC-positive cyclophosphamide-pre-treated patients, IMA901 treatment (FIG. 1D)) did it give?
A: 75%

Q: And the “HR, interaction of biomarker with cyclophosphamide pre-treatment (overall survival)” value (from here on “HR, interaction of biomarker”) (biomarker ApoA1, cutoff 0.264 mg/ml)?
A: 0.43

Q: What about the “HR, interaction of biomarker” value (biomarker CCL17/TARC, cutoff 161.99 pg/ml) of the same molecule?
A: 0.26

Q: And the “HR, interaction of biomarker” value (biomarker CXCL13/BCA-1, cutoff 64.21 pg/ml)?
A: 0.3271

Q: And the “HR, interaction of biomarker” value (biomarker monocytes, cutoff 7.7%)?
A: 0.22

Q: What about the “HR, overall survival, +CY vs −CY arm” value (biomarker-negative group, ApoA1, cutoff 0.264 mg/ml) of the same molecule?
A: 0.84

Q: And the “HR, overall survival, +CY vs −CY arm” value (biomarker-negative group, CCL17/TARC, cutoff 161.99 pg/ml)?
A: 0.85

Q: What about the “HR, overall survival, +CY vs −CY arm” value (biomarker-negative group, CXCL13/BCA-1, cutoff 64.21 pg/ml) of the same molecule?
A: 1.07

Q: What about the “HR, overall survival, +CY vs −CY arm” value (biomarker-negative group, monocytes, cutoff 7.7%) of the same molecule?
A: 1.31

Q: And the “HR (95% CI), overall survival, +CY vs −CY arm” value (biomarker-negative group, multivariate biomarker, cutoff 0.019076043 points)?
A: 2.5 (0.95-6.58);

Q: What about the “HR, overall survival, +CY vs −CY arm” value (biomarker-positive group, ApoA1, cutoff 0.264 mg/ml) of the same molecule?
A: 0.36

Q: And the “HR, overall survival, +CY vs −CY arm” value (biomarker-positive group, CCL17/TARC, cutoff 161.99 pg/ml)?
A: 0.22

Q: What about the “HR, overall survival, +CY vs −CY arm” value (biomarker-positive group, CXCL13/BCA-1, cutoff 64.21 pg/ml) of the same molecule?
A: 0.35

Q: What about the “HR, overall survival, +CY vs −CY arm” value (biomarker-positive group, monocytes, cutoff 7.7%) of the same molecule?
A: 0.29

Q: What about the “HR (95% CI), overall survival, +CY vs −CY arm” value (biomarker-positive group, multivariate biomarker, cutoff 0.019076043 points) of the same molecule?
A: 0.08 (0.02-0.38);

Q: And the “HR (95% CI), interaction of multivariate biomarker with cyclophosphamide pre-treatment (overall survival)” value (multivariate biomarker, cutoff 0.019076043 points)?
A: 0.032 (0.0055-0.1863);
